In patent publication US20150225377A1, “VEGFR3 INHIBITORS” (CANCER THERAPEUTICS CRC PTY LIMITED, priority 2012, published 2015):

Molecular target: T1, VEGFR3 cytoplasmic domain (Homo sapiens, UniProt P35916)
T1 construct: VEGFR3 cytoplasmic domain (amino acids 798-1298) was purchased as N-terminal GST-fusion protein; GST (N); purchased
Experiment: VEGFR3 biochemical assay (AlphaScreen)
Settings: GST-VEGFR3 cytoplasmic domain, 500 μM ATP (modified form: His-fusion, 1 μM ATP)
Protocol: Compounds of the invention may be tested for in vitro activity in the following assay: A biotin labelled peptide is used as substrate (amino acid sequence: Biotin-[…]NH2). VEGFR3 cytoplasmic domain (amino acids 798-1298) was purchased as N-terminal GST-fusion protein (“the enzyme”). The 15 μL assay reactions are run in Greiner brand white 384-well low volume plates. All reactions contained 10 mM HEPES pH 7.4, 10 mM MgCl2, 0.01% (v/v) Tween-20, 50 μM Na3VO4, 0.01% (w/v) albumin from chicken egg white, 1 mM Dithiothreitol, 111 nM peptide substrate, 500 μM ATP, and 3.8 ng/reaction enzyme, with the enzyme being omitted from negative control reactions. Compounds were added in a volume of […] from dilution series prepared in DMSO, positive and negative control reactions receiving the same volume DMSO without compound. The plates were sealed with adhesive seals and incubated for 90 minutes at 30 degree Celsius. The reactions were stopped with the detection reagents added at the same time as follows: Product formation was quantified as amplified luminescence between PerkinElmer AlphaScreen™ beads, using Streptavidin-coated donor and anti-phosphotyrosine (P-Tyr-100) acceptor beads. To each reaction, 5 μL containing 10 mM HEPES pH 7.4, 25 mM NaCl, 100 mM EDTA, 0.01% (v/v) Tween-20, and 6.25 μg/mL of each bead type were added. Plates were incubated for 6 hours before being read on a PerkinElmer EnVision™ plate reader in HTS Alphascreen™ mode. IC50 values were obtained by calculating percent inhibition (% I) for each reaction relative to controls on the same plate (% I=(I-CN)/(CP-CN) where CN/CP are the averages of the negative/positive reactions, respectively), then fitting the % I data vs. compound concentration [I] to % I=(A+((B−A)/(1+((C/[I])̂D)))) where A is the lower asymptote, B is the upper asymptote, C is the IC50 value, and D is the slope factor.
The above assay was also run in a modified form in some cases (indicated below with *). In these cases, VEGFR3 cytoplasmic domain (amino acids 818-1177, lacking 949-1002 of UniProt accession number P35916) was expressed and purified as N-terminal Hexa-His-fusion protein (“the enzyme”), rather than using the N-terminal GST-fusion protein. The assay conditions were the same as above but with 1 μM ATP and 8 ng/reaction of the enzyme.

T1 sequence (P35916 798-1298 isoform P35916-1): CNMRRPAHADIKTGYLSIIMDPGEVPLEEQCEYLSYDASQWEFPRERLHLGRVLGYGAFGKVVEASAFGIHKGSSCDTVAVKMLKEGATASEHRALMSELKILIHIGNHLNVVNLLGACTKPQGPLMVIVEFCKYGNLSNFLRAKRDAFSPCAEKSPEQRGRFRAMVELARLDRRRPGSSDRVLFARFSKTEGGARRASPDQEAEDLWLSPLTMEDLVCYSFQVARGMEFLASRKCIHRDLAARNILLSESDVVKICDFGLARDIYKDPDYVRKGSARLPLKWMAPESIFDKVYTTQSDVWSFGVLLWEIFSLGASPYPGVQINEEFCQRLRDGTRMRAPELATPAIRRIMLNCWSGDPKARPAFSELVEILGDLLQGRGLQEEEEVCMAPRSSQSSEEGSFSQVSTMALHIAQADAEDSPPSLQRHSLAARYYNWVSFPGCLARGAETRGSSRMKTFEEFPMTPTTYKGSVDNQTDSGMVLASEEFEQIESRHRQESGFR

| Compound | IC50 [nM] |
| --- | --- |
| NC(=O)Cc1ccccc1CCc1ccnc(Nc2ccc(N3CCNCC3)cc2)n1 [Compound 1, 2-(2-(2-(2-((4-(piperazin-1-yl)phenyl)amino)pyrimidin-4-yl)ethyl)phenyl)acetamide] | 161 |
| Cc1cnc(Nc2ccc(CN)cc2)nc1CCc1ccccc1CC(N)=O [Compound 27, 2-(2-(2-(2-((4-(aminomethyl)phenyl)amino)-5-methylpyrimidin-4-yl)ethyl)phenyl)acetamide] | 118 |
| COC(=O)NC1(c2ccc(Nc3ncc(C)c(CCc4ccccc4CC(N)=O)n3)cc2)CCC1 [Compound 29, methyl 1-(4-(4-(2-(2-amino-2-oxoethyl)phenethyl)-5-methylpyrimidin-2-ylamino)phenyl)cyclobutylcarbamate] | 17 |
| Cc1cnc(Nc2cnn(C3CNC3)c2)nc1CCc1ccccc1CC(N)=O [Compound 30, 2-(2-(2-(2-((1-(azetidin-3-yl)-^1H-pyrazol-4-yl)amino)-5-methylpyrimidin-4-yl)ethyl)phenyl)acetamide] | 9 |
| Cc1cnc(Nc2ccc(C3CNC3)cc2)nc1CCc1ccccc1CC(N)=O [Compound 32, 2-(2-(2-(2-((4-(azetidin-3-yl)phenyl)amino)-5-methylpyrimidin-4-yl)ethyl)phenyl)acetamide] | 52 |
| Cc1cnc(Nc2ccc(C(C)N)cc2)nc1CCc1ccccc1CC(N)=O (stereo not drawn) [Compound 34, 2-(2-(2-(2-((4-(1-aminoethyl)phenyl)amino)-5-methylpyrimidin-4-yl)ethyl)phenyl)acetamide] | 71 |
| NC(=O)Cc1ccccc1CCc1nc(Nc2cnn(C3CCNCC3)c2)ncc1C(F)(F)F [Compound 35, 2-(2-(2-(2-((1-(piperidin-4-yl)-^1H-pyrazol-4-yl)amino)-5-(trifluoromethyl)pyrimidin-4-yl)ethyl)phenyl)acetamide] | 23 |
| CN1CCC(n2cc(Nc3ncc(C(F)(F)F)c(CCc4ccccc4CC(N)=O)n3)cn2)CC1 [Compound 36, 2-(2-(2-(2-((1-(1-methylpiperidin-4-yl)-^1H-pyrazol-4-yl)amino)-5-(trifluoromethyl)pyrimidin-4-yl)ethyl)phenyl)acetamide] | 50 |
| CC(N)c1cccc(Nc2ncc(Cl)c(CCc3ccccc3CC(N)=O)n2)c1 (stereo not drawn) [Compound 38, 2-(2-(2-(2-((3-(1-aminoethyl)phenyl)amino)-5-chloropyrimidin-4-yl)ethyl)phenyl)acetamide] | 76 |
| CC(=O)NC(C)c1cccc(Nc2ncc(Cl)c(CCc3ccccc3CC(N)=O)n2)c1 (stereo not drawn) [Compound 39, 2-(2-(2-(2-((3-(1-acetamidoethyl)phenyl)amino)-5-chloropyrimidin-4-yl)ethyl)phenyl)acetamide] | 10 |

Now from value to molecule:

| IC50 [nM] | Compound |
| --- | --- |
| 40 | NC(=O)Cc1ccccc1CCc1nc(Nc2ccc(C3CCNCC3)c(F)c2)ncc1C(F)(F)F [Compound 7, 2-(2-(2-(2-((3-Fluoro-4-(piperidin-4-yl)phenyl)amino)-5-(trifluoromethyl)pyrimidin-4-yl)ethyl)phenyl)acetamide] |
| 34 | CN1CCC(c2ccc(Nc3ncc(C(F)(F)F)c(CCc4ccccc4CC(N)=O)n3)cc2F)CC1 [Compound 8, 2-(2-(2-(2-((3-fluoro-4-(1-methylpiperidin-4-yl)phenyl)amino)-5-(trifluoromethyl)pyrimidin-4-yl)ethyl)phenyl)acetamide] |
| 76 | CN1CCC(c2ccc(Nc3ncc(C(F)(F)F)c(CCc4ccc(F)cc4CC(N)=O)n3)cc2)CC1 [Compound 10, 2-(5-fluoro-2-(2-(2-((4-(1-methylpiperidin-4-yl)phenyl)amino)-5-(trifluoromethyl)pyrimidin-4-yl)ethyl)phenyl)acetamide] |
| 81 | CN1CCC(c2ccc(Nc3ncc(C(F)(F)F)c(CCc4ccccc4CC(N)=O)n3)cn2)CC1 [Compound 14, 2-(2-(2-(2-((6-(1-methylpiperidin-4-yl)pyridin-3-yl)amino)-5-(trifluoromethyl)pyrimidin-4-yl)ethyl)phenyl)acetamide] |
| 31 | NC(=O)Cc1ccc(F)cc1CCc1nc(Nc2ccc(C3CCNCC3)cc2)ncc1C(F)(F)F [Compound 15, 2-(4-fluoro-2-(2-(2-((4-(piperidin-4-yl)phenyl)amino)-5-(trifluoromethyl)pyrimidin-4-yl)ethyl)phenyl)acetamide] |
| 67 | CN1CCC(c2ccc(Nc3ncc(C(F)(F)F)c(CCc4cc(C(F)(F)F)ccc4CC(N)=O)n3)cc2)CC1 [Compound 17, 2-(2-(2-(2-((4-(1-methylpiperidin-4-yl)phenyl)amino)-5-(trifluoromethyl)pyrimidin-4-yl)ethyl)-4-(trifluoromethyl)phenyl)acetamide] |
| 37 | NC(=O)Cc1ccccc1CCc1nc(Nc2ccc(C3CNC3)cc2)ncc1C(F)(F)F [Compound 20, 2-(2-(2-(2-((4-(azetidin-3-yl)phenyl)amino)-5-(trifluoromethyl)pyrimidin-4-yl)ethyl)phenyl)acetamide] |
| 72 | COc1cnc(Nc2ccc(C3CCNCC3)cc2)nc1CCc1ccccc1CC(N)=O [Compound 23, 2-(2-(2-(5-methoxy-2-((4-(piperidin-4-yl)phenyl)amino)pyrimidin-4-yl)ethyl)phenyl)acetamide] |
| 278 | NC(=O)Cc1cc(C(F)(F)F)ccc1CCc1nc(Nc2ccc(C3CCNCC3)cc2)ncc1C(F)(F)F [Compound 25, 2-(2-(2-(2-((4-(piperidin-4-yl)phenyl)amino)-5-(trifluoromethyl)pyrimidin-4-yl)ethyl)-5-(trifluoromethyl)phenyl)acetamide] |
| 187 | CC(N)c1ccc(Nc2ncc(C(F)(F)F)c(CCc3ccccc3CC(N)=O)n2)cn1 (stereo not drawn) [Compound 40, 2-(2-(2-(2-((6-(1-Aminoethyl)pyridin-3-yl)amino)-5-(trifluoromethyl)pyrimidin-4-yl)ethyl)phenyl)acetamide] |
| 26 | NC(=O)Cc1cccc(F)c1CCc1nc(Nc2ccc(C3CCNCC3)cc2)ncc1C(F)(F)F [Compound 41] |
